Experimental data as given in ChEMBL document CHEMBL3885861, “Open TG-GATES”.

Organism: Rattus norvegicus
Test: Open TG-GATES - Regimen: Daily Repeat
Format: toxicity, organism-based, Sprague-Dawley
Parameters: regimen Daily Repeat, gender Male, age 6 weeks
Conditions: in vivo, po, route gavage; for APTT / Bas / Eos / Fbg / Hb / Ht / Lym / MCH / MCHC / MCV / Mono / Neu / PT / Plat / RBC / Ret / WBC: tissue Blood; for ALP / ALT / AST / BUN / CRE / DBIL / GLC / IP / K / Na / PL / RALB / TBIL / TC / TG / TP / gamma-GTP: tissue Plasma
[1] = 0 mg/kg, 72 h, dose level Control, time 3 day
[2] = 0 mg/kg, […], dose level Control, time 7 day
[3] = 0 mg/kg, […], dose level Control, time 14 day
[4] = 0 mg/kg, […], dose level Control, time 28 day
[5] = 30 mg/kg, 72 h, dose level Low, time 3 day
[6] = 30 mg/kg, […], dose level Low, time 7 day
[7] = 30 mg/kg, […], dose level Low, time 14 day
[8] = 30 mg/kg, […], dose level Low, time 28 day

In the case of NS(=O)(=O)c1cc(C(=O)O)c(NCc2ccco2)cc1Cl [FUROSEMIDE], the TERMINAL_BW [1] was 240.2 g, the APTT [1] was 15.8 s and the Bas [1] was 0.2%. It also gave an Eos [1] of 1%, a Fbg [1] of 306 mg/dL and a Hb [1] of 13.5 g/dL. For the same compound, the Ht [1] was 40.3%, the Lym [1] was 73.8% and the MCH [1] was 21.5 pg. For the same compound, the MCHC [1] was 33.6%, the MCV [1] was 64.1 fL and the Mono [1] was 3.2%. For the same compound, the Neu [1] was 21.2%, the PT [1] was 14.8 s and the Plat [1] was 114.8 x10_4/uL. The RBC [1] was 629.2 x10_4/ul, the Ret [1] was 6.5% and the WBC [1] was 92.7 x10_2/uL. The ALP [1] was 1396.2 IU/L, the ALT [1] was 42 IU/L and the AST [1] was 66.2 IU/L. The BUN [1] was 14.4 mg/dL, the CRE [1] was 0.2 mg/dL and the DBIL [1] was 0.016 mg/dL. For the same compound, the GLC [1] was 180.2 mg/dL, the IP [1] was 7.7 mg/dL and the K [1] was 3.8 meq/L. The Na [1] was 142.6 meq/L, the PL [1] was 182 mg/dL and the RALB [1] was 2.7 g/dL. The TBIL [1] was 0.056 mg/dL, the TC [1] was 91 mg/dL and the TG [1] was 130 mg/dL. The TP [1] was 5.8 g/dL, the gamma-GTP [1] was 0.4 IU/L and the TERMINAL_BW [2] was 280.2 g. For the same compound, the TERMINAL_BW [3] was 327.8 g, the TERMINAL_BW [4] was 406.3 g and the APTT [2] was 17.8 s. The Bas [2] was 0.6%, the Eos [2] was 1% and the Fbg [2] was 294.2 mg/dL. The Hb [2] was 13.7 g/dL, the Ht [2] was 39.9% and the Lym [2] was 80.2%. For the same compound, the MCH [2] was 21.2 pg, the MCHC [2] was 34.5% and the MCV [2] was 61.5 fL. For the same compound, the Mono [2] was 2.6%, the Neu [2] was 14.8% and the PT [2] was 15.5 s. The Plat [2] was 125.8 x10_4/uL, the RBC [2] was 648.6 x10_4/ul and the Ret [2] was 5.2%. For the same compound, the WBC [2] was 100.8 x10_2/uL, the APTT [3] was 19.3 s and the Bas [3] was 0.4%. It also gave an Eos [3] of 1%, a Fbg [3] of 289.4 mg/dL and a Hb [3] of 15 g/dL. The Ht [3] was 43.1%, the Lym [3] was 81% and the MCH [3] was 21 pg. For the same compound, the MCHC [3] was 34.7%, the MCV [3] was 60.4 fL and the Mono [3] was 2.8%. It also gave a Neu [3] of 14.2%, a PT [3] of 15.3 s and a Plat [3] of 117.3 x10_4/uL. The RBC [3] was 713.8 x10_4/ul, the Ret [3] was 4.2% and the WBC [3] was 117.4 x10_2/uL. For the same compound, the APTT [4] was 17.8 s, the Bas [4] was 0.6% and the Eos [4] was 1.2%. For the same compound, the Fbg [4] was 266.6 mg/dL, the Hb [4] was 15.1 g/dL and the Ht [4] was 44.6%. For the same compound, the Lym [4] was 82.2%, the MCH [4] was 19.1 pg and the MCHC [4] was 33.7%. The MCV [4] was 56.7 fL, the Mono [4] was 2.2% and the Neu [4] was 13.4%. It also gave a PT [4] of 16.4 s, a Plat [4] of 100.7 x10_4/uL and an RBC [4] of 787.6 x10_4/ul. It also gave a Ret [4] of 1.8%, a WBC [4] of 98.8 x10_2/uL and an ALP [2] of 1277.2 IU/L. The ALT [2] was 38.2 IU/L, the AST [2] was 61.4 IU/L and the BUN [2] was 15.6 mg/dL. The CRE [2] was 0.2 mg/dL, the DBIL [2] was 0.018 mg/dL and the GLC [2] was 179.4 mg/dL. For the same compound, the IP [2] was 7.8 mg/dL, the K [2] was 4 meq/L and the Na [2] was 142.6 meq/L. The PL [2] was 168 mg/dL, the RALB [2] was 2.7 g/dL and the TBIL [2] was 0.05 mg/dL. The TC [2] was 85.6 mg/dL, the TG [2] was 119.8 mg/dL and the TP [2] was 5.9 g/dL. For the same compound, the gamma-GTP [2] was 0.8 IU/L, the ALP [3] was 1456.8 IU/L and the ALT [3] was 43.4 IU/L. For the same compound, the AST [3] was 64.6 IU/L, the BUN [3] was 15.2 mg/dL and the CRE [3] was 0.2 mg/dL. For the same compound, the DBIL [3] was 0.014 mg/dL, the GLC [3] was 177.8 mg/dL and the IP [3] was 7.4 mg/dL. The K [3] was 4.1 meq/L, the Na [3] was 143.6 meq/L and the PL [3] was 160.6 mg/dL. For the same compound, the RALB [3] was 2.8 g/dL, the TBIL [3] was 0.046 mg/dL and the TC [3] was 69.8 mg/dL. The TG [3] was 157.2 mg/dL, the TP [3] was 6.1 g/dL and the gamma-GTP [3] was 0.6 IU/L. The ALP [4] was 1033.8 IU/L, the ALT [4] was 36.4 IU/L and the AST [4] was 64.6 IU/L. It also gave a BUN [4] of 14.4 mg/dL, a CRE [4] of 0.2 mg/dL and a DBIL [4] of 0.016 mg/dL. The GLC [4] was 183.4 mg/dL, the IP [4] was 6.3 mg/dL and the K [4] was 3.9 meq/L. For the same compound, the Na [4] was 143.8 meq/L, the PL [4] was 137.2 mg/dL and the RALB [4] was 2.8 g/dL. For the same compound, the TBIL [4] was 0.048 mg/dL, the TC [4] was 64.8 mg/dL and the TG [4] was 116.6 mg/dL. The TP [4] was 6.2 g/dL, the gamma-GTP [4] was 0.4 IU/L and the TERMINAL_BW [5] was 242 g. For the same compound, the APTT [5] was 16.1 s, the Bas [5] was 0.2% and the Eos [5] was 1%. For the same compound, the Fbg [5] was 282.4 mg/dL, the Hb [5] was 13.4 g/dL and the Ht [5] was 39.8%. The Lym [5] was 79.2%, the MCH [5] was 21.7 pg and the MCHC [5] was 33.6%. For the same compound, the MCV [5] was 64.6 fL, the Mono [5] was 2.4% and the Neu [5] was 16.8%. For the same compound, the PT [5] was 15.2 s, the Plat [5] was 115.5 x10_4/uL and the RBC [5] was 617 x10_4/ul. For the same compound, the Ret [5] was 5.5%, the WBC [5] was 93.7 x10_2/uL and the ALP [5] was 1458.2 IU/L. It also gave an ALT [5] of 37.6 IU/L, an AST [5] of 66.6 IU/L and a BUN [5] of 16.2 mg/dL. For the same compound, the CRE [5] was 0.2 mg/dL, the DBIL [5] was 0.012 mg/dL and the GLC [5] was 173.8 mg/dL. The IP [5] was 7.3 mg/dL, the K [5] was 3.8 meq/L and the Na [5] was 142.6 meq/L. The PL [5] was 157 mg/dL, the RALB [5] was 2.6 g/dL and the TBIL [5] was 0.048 mg/dL. The TC [5] was 79.2 mg/dL, the TG [5] was 94.6 mg/dL and the TP [5] was 5.7 g/dL. It also gave a gamma-GTP [5] of 0.6 IU/L, a TERMINAL_BW [6] of 283.7 g and a TERMINAL_BW [7] of 321.7 g. For the same compound, the TERMINAL_BW [8] was 410.5 g, the APTT [6] was 17.3 s and the Bas [6] was 0.2%. The Eos [6] was 1%, the Fbg [6] was 291 mg/dL and the Hb [6] was 13.4 g/dL. The Ht [6] was 39.7%, the Lym [6] was 78.2% and the MCH [6] was 21.2 pg. For the same compound, the MCHC [6] was 33.7%, the MCV [6] was 62.8 fL and the Mono [6] was 3%. The Neu [6] was 16.4%, the PT [6] was 15.5 s and the Plat [6] was 114.5 x10_4/uL. The RBC [6] was 631.8 x10_4/ul, the Ret [6] was 5.9% and the WBC [6] was 125.8 x10_2/uL. The APTT [7] was 19.2 s, the Bas [7] was 0.4% and the Eos [7] was 0.8%. The Fbg [7] was 296.8 mg/dL, the Hb [7] was 14.4 g/dL and the Ht [7] was 42.1%. The Lym [7] was 81.4%, the MCH [7] was 20.8 pg and the MCHC [7] was 34.3%. The MCV [7] was 60.7 fL, the Mono [7] was 2.2% and the Neu [7] was 14.2%. It also gave a PT [7] of 15.8 s, a Plat [7] of 109.5 x10_4/uL and an RBC [7] of 693.6 x10_4/ul. For the same compound, the Ret [7] was 3.9%, the WBC [7] was 112.4 x10_2/uL and the APTT [8] was 17.7 s. It also gave a Bas [8] of 0.6%, an Eos [8] of 1% and a Fbg [8] of 270.4 mg/dL. The Hb [8] was 14.8 g/dL, the Ht [8] was 43.9% and the Lym [8] was 81.2%. It also gave an MCH [8] of 19.8 pg, an MCHC [8] of 33.8% and an MCV [8] of 58.5 fL. It also gave a Mono [8] of 1.8%, a Neu [8] of 15% and a PT [8] of 15.8 s. It also gave a Plat [8] of 95.5 x10_4/uL, an RBC [8] of 750.2 x10_4/ul and a Ret [8] of 2.5%. For the same compound, the WBC [8] was 110.9 x10_2/uL, the ALP [6] was 1491.8 IU/L and the ALT [6] was 41.2 IU/L. The AST [6] was 67.4 IU/L, the BUN [6] was 16.2 mg/dL and the CRE [6] was 0.2 mg/dL. The DBIL [6] was 0.018 mg/dL, the GLC [6] was 188.2 mg/dL and the IP [6] was 7.5 mg/dL. For the same compound, the K [6] was 4 meq/L, the Na [6] was 142.6 meq/L and the PL [6] was 170.2 mg/dL. It also gave an RALB [6] of 2.6 g/dL, a TBIL [6] of 0.05 mg/dL and a TC [6] of 83.6 mg/dL. It also gave a TG [6] of 130.2 mg/dL, a TP [6] of 5.7 g/dL and a gamma-GTP [6] of 0.8 IU/L. For the same compound, the ALP [7] was 1426.6 IU/L, the ALT [7] was 40.8 IU/L and the AST [7] was 70 IU/L. It also gave a BUN [7] of 16.6 mg/dL, a CRE [7] of 0.2 mg/dL and a DBIL [7] of 0.016 mg/dL. For the same compound, the GLC [7] was 188.6 mg/dL, the IP [7] was 6.7 mg/dL and the K [7] was 3.9 meq/L. The Na [7] was 143.6 meq/L, the PL [7] was 152 mg/dL and the RALB [7] was 2.6 g/dL. For the same compound, the TBIL [7] was 0.046 mg/dL, the TC [7] was 72.2 mg/dL and the TG [7] was 126.6 mg/dL. It also gave a TP [7] of 5.9 g/dL, a gamma-GTP [7] of 0.4 IU/L and an ALP [8] of 1044.8 IU/L. The ALT [8] was 36 IU/L, the AST [8] was 58.6 IU/L and the BUN [8] was 15.8 mg/dL. For the same compound, the CRE [8] was 0.2 mg/dL, the DBIL [8] was 0.016 mg/dL and the GLC [8] was 179.4 mg/dL. It also gave an IP [8] of 5.8 mg/dL, a K [8] of 3.9 meq/L and a Na [8] of 144 meq/L. The PL [8] was 164.4 mg/dL, the RALB [8] was 2.7 g/dL and the TBIL [8] was 0.044 mg/dL. It also gave a TC [8] of 78.4 mg/dL, a TG [8] of 155.8 mg/dL and a TP [8] of 6.3 g/dL. For the same compound, the gamma-GTP [8] was 1 IU/L.
